According to patent US8076347B2, “Compounds and methods for the treatment of cancer” (University of Georgia Research Foundation, Inc., priority 1995, dated 2011):
“Also recorded” adds a separate entry of the source.

Columns and labels:
tumor cell lines = format: cell-based
Leukemia P388 cells = assay: In vivo treatment of leukemia P388 cells implanted ip in BDF1 mice; settings: 25 × 2 × 5 mg/kg ip, twice a day on days 1 to 5
Text: 10^6 Leukemia P388 cells were implanted ip to BDF1 mice obtained from Southern Research Institute, Alabama.

Colon 38 tumor cells = assay: In vivo treatment of Colon 38 tumor cells implanted sc in BDF1 mice; settings: 25 mg/kg/dose twice daily for five days
Text: Colon 38 tumor cells were implanted sc to BDF1 mice.

cytidine deaminase = cytidine deaminase (Homo sapiens, UniProt P32320); assay: Enzymatic studies of deamination; format: biochemical
Chain of cytidine deaminase (P32320 whole entry, species assumed): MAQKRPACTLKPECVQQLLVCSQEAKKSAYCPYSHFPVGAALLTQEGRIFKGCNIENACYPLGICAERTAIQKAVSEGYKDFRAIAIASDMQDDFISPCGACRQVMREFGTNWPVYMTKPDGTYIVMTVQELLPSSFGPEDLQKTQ

[1] = target: human deoxycytidine kinase (Homo sapiens, UniProt P27707); assay: In vitro enzymatic studies of phosphorylation; format: biochemical
Chain of human deoxycytidine kinase (P27707 whole entry): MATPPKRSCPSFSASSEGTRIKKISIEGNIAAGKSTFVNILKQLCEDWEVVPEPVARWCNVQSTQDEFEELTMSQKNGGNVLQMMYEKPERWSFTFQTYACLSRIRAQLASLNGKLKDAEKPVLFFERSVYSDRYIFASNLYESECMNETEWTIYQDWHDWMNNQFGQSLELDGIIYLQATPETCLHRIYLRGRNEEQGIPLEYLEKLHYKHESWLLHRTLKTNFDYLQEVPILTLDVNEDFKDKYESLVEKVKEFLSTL

[2] = Phosphorylation to nucleotides in vivo
HepG2 cells = assay: Activity against HepG2 cells in nude mice; format: in vivo

Structure (SMILES) | cytotoxicity in all of the tumor cell lines tested (tumor cell lines) | Cures/Total (survivors equal or greater than 45 day life span) (Leukemia P388 cells; 5 mg/kg) | ILS (Increased Life Span percent above control) (Leukemia P388 cells; 10^6 P388 cells ip on day 0) | colon tumor cell growth (FIG. 2) (Colon 38 tumor cells) | effectiveness compared with AraC (tumor cell lines; KB, DU-145 and PC-3 cell lines) | deamination / substrate for deaminase (cytidine deaminase) | phosphorylation by human deoxycytidine kinase [1] | phosphorylation to mono-, di- and tri-phosphate nucleotide [2] | activity against HepG2 cells in nude mice (HepG2 cells)
O=c1ccn(C2COC(CO)O2)c(=O)[nH]1 (single isomer, unassigned; (-)) [(−)-OddU, reference compound] | not toxic |  |  |  |  |  |  |  | 
Nc1ccn([C@@H]2CO[C@H](CO)O2)c(=O)n1 [(−)-OddC, (−)-(2S,4S)-1-(2-hydroxymethyl-1,3-dioxolan-4-yl)cytosine] | more cytotoxic than AraC | 1/6 | 103% | retarded | significantly more effective than AraC | not a substrate for deaminase; also recorded: not deaminated | can be phosphorylated by this enzyme | can be phosphorylated | active
Nc1ccn([C@@H]2O[C@H](CO)[C@@H](O)[C@@H]2O)c(=O)n1 [AraC, Cytosine arabinoside, reference compound] |  |  |  |  |  |  |  |  | inactive
